Reference: ChEMBL document CHEMBL4219066, “Identification and Mitigation of Reactive Metabolites of 2-Aminoimidazole-Containing Microsomal Prostaglandin E Synthase-1 Inhibitors Terminated Due to Clinical Drug-Induced Liver Injury” (J Med Chem, 2018)

How the values were obtained:
[1] = Drug metabolism in rat hepatocytes assessed as 2-chloro-5-((3-hydroxy-2,2-dimethylpropanamido)methyl)-N-(1H-imidazol-2-yl)benzamide formation at 2 uM after 4 hrs by LC-MS/MS analysis; type: ADME, cell-based, Hepatocyte
[2] = Drug metabolism in Sprague-Dawley rat plasma assessed as 2-chloro-N-(4,5-dihydroxy-4,5-dihydro-1H-imidazol-2-yl)-5-(pivalamidomethyl)benzamide formation at 1000 mg/kg, po measured after 2 hrs post dose by LC/MS analysis; type: ADME, organism-based; details: in vivo
[3] = Drug metabolism in dog hepatocytes assessed as N-carbamimidoyl-2-chloro-5-(pivalamidomethyl)benzamide formation at 2 uM after 4 hrs by LC-MS/MS analysis; type: ADME, cell-based, Canis lupus familiaris, Hepatocyte
[4] = In vivo drug metabolism in human urine assessed as N-carbamimidoyl-2-chloro-5-((3-hydroxy-2,2-dimethylpropanamido)methyl)benzamide formation by HPLC-MS analysis; type: ADME, organism-based
[5] = Drug metabolism in Beagle dog plasma assessed as 5-(aminomethyl)-2-chloro-N-(1H-imidazol-2-yl)benzamide formation at 300 to 600 mg/kg, po measured after 2 hrs post dose by LC/MS analysis; type: ADME, organism-based, Canis lupus familiaris; details: in vivo
[6] = Drug metabolism in dog hepatocytes assessed as 2-chloro-5-((3-hydroxy-2,2-dimethylpropanamido)methyl)-N-(1H-imidazol-2-yl)benzamide formation at 2 uM after 4 hrs by LC-MS/MS analysis; type: ADME, cell-based, Canis lupus familiaris, Hepatocyte
[7] = Drug metabolism in Beagle dog plasma assessed as N-carbamimidoyl-2-chloro-5-(pivalamidomethyl)benzamide formation at 300 to 600 mg/kg, po measured after 2 hrs post dose by LC/MS analysis; type: ADME, organism-based, Canis lupus familiaris; details: in vivo
[8] = Drug metabolism in human hepatocytes assessed as 2-chloro-5-((3-hydroxy-2,2-dimethylpropanamido)methyl)-N-(1H-imidazol-2-yl)benzamide formation at 2 uM after 4 hrs by LC-MS/MS analysis; type: ADME, cell-based, Hepatocyte
[9] = In vivo drug metabolism in human urine assessed as (R)-2-amino-3-((2-(2-chloro-5-(pivalamidomethyl)benzamido)-1H-imidazol-5-yl)disulfanyl)propanoic acid formation by HPLC-MS analysis; type: ADME, organism-based
[10] = In vivo drug metabolism in human urine assessed as N-carbamimidoyl-2-chloro-5-(pivalamidomethyl)benzamide formation by HPLC-MS analysis; type: ADME, organism-based
[11] = Drug metabolism in dog hepatocytes assessed as 2-chloro-N-(4,5-dihydroxy-4,5-dihydro-1H-imidazol-2-yl)-5-(pivalamidomethyl)benzamide formation at 2 uM after 4 hrs by LC-MS/MS analysis; type: ADME, cell-based, Canis lupus familiaris, Hepatocyte
[12] = Drug metabolism in Sprague-Dawley rat plasma assessed as N-carbamimidoyl-2-chloro-5-(pivalamidomethyl)benzamide formation at 1000 mg/kg, po measured after 2 hrs post dose by LC/MS analysis; type: ADME, organism-based; details: in vivo
[13] = In vivo drug metabolism in human plasma assessed as N-carbamimidoyl-2-chloro-5-(pivalamidomethyl)benzamide formation by HPLC-MS analysis; type: ADME, organism-based
[14] = Drug metabolism in rat hepatocytes assessed as 2-amino-5-((R)-1-(carboxymethylamino)-3-((2-(2-chloro-5-(pivalamidomethyl)benzamido)-1H-imidazol-5-yl)disulfanyl)-1-oxopropan-2-ylamino)-5-oxopentanoic acid formation at 2 uM after 4 hrs by LC-MS/MS analysis; type: ADME, cell-based, Hepatocyte
[15] = Drug metabolism in Sprague-Dawley rat plasma assessed as 2-chloro-5-((3-hydroxy-2,2-dimethylpropanamido)methyl)-N-(1H-imidazol-2-yl)benzamide formation at 1000 mg/kg, po measured after 2 hrs post dose by LC/MS analysis; type: ADME, organism-based; details: in vivo
[16] = Drug metabolism in Beagle dog plasma assessed as 2-chloro-N-(4-hydroxy-1H-imidazol-2-yl)-5-(pivalamidomethyl)benzamide formation at 300 to 600 mg/kg, po measured after 2 hrs post dose by LC/MS analysis; type: ADME, organism-based, Canis lupus familiaris; details: in vivo
[17] = In vivo drug metabolism in human plasma assessed as 2-chloro-5-((3-hydroxy-2,2-dimethylpropanamido)methyl)-N-(1H-imidazol-2-yl)benzamide formation HPLC-MS analysis; type: ADME, organism-based
[18] = Drug metabolism in human hepatocytes assessed as 2-chloro-N-(4,5-dihydroxy-4,5-dihydro-1H-imidazol-2-yl)-5-(pivalamidomethyl)benzamide formation at 2 uM after 4 hrs by LC-MS/MS analysis; type: ADME, cell-based, Hepatocyte
[19] = In vivo drug metabolism in human urine assessed as 2-chloro-N-(4-hydroxy-1H-imidazol-2-yl)-5-(pivalamidomethyl)benzamide formation by HPLC-MS analysis; type: ADME, organism-based
[20] = Drug metabolism in Sprague-Dawley rat plasma assessed as 5-(aminomethyl)-2-chloro-N-(1H-imidazol-2-yl)benzamide formation at 1000 mg/kg, po measured after 2 hrs post dose by LC/MS analysis; type: ADME, organism-based; details: in vivo
[21] = Drug metabolism in rat hepatocytes assessed as 2-chloro-N-(4,5-dihydroxy-4,5-dihydro-1H-imidazol-2-yl)-5-(pivalamidomethyl)benzamide formation at 2 uM after 4 hrs by LC-MS/MS analysis; type: ADME, cell-based, Hepatocyte
[22] = Drug metabolism in human hepatocytes assessed as 2-chloro-N-(4-hydroxy-1H-imidazol-2-yl)-5-(pivalamidomethyl)benzamide formation at 2 uM after 4 hrs by LC-MS/MS analysis; type: ADME, cell-based, Hepatocyte
[23] = Drug metabolism in dog hepatocytes assessed as N-(6-oxa-2,4-diazabicyclo[3.1.0]hex-3-en-3-yl)-2-chloro-5-(pivalamidomethyl)benzamide formation at 2 uM after 4 hrs by LC-MS/MS analysis; type: ADME, cell-based, Canis lupus familiaris, Hepatocyte
[24] = Drug metabolism in Beagle dog plasma assessed as N-(6-oxa-2,4-diazabicyclo[3.1.0]hex-3-en-3-yl)-2-chloro-5-(pivalamidomethyl)benzamide formation at 300 to 600 mg/kg, po measured after 2 hrs post dose by LC/MS analysis; type: ADME, organism-based, Canis lupus familiaris; details: in vivo
[25] = Drug metabolism in Beagle dog plasma assessed as 2-chloro-5-(pivalamidomethyl)benzoic acid formation at 300 to 600 mg/kg, po measured after 2 hrs post dose by LC/MS analysis; type: ADME, organism-based, Canis lupus familiaris; details: in vivo
[26] = Drug metabolism in Beagle dog plasma assessed as 2-chloro-N-(4,5-dihydroxy-4,5-dihydro-1H-imidazol-2-yl)-5-(pivalamidomethyl)benzamide formation at 300 to 600 mg/kg, po measured after 2 hrs post dose by LC/MS analysis; type: ADME, organism-based, Canis lupus familiaris; details: in vivo
[27] = Drug metabolism in Sprague-Dawley rat plasma assessed as 2-chloro-5-(pivalamidomethyl)benzoic acid formation at 1000 mg/kg, po measured after 2 hrs post dose by LC/MS analysis; type: ADME, organism-based; details: in vivo
[28] = In vivo drug metabolism in human urine assessed as 2-chloro-5-((3-hydroxy-2,2-dimethylpropanamido)methyl)-N-(1H-imidazol-2-yl)benzamide formation by HPLC-MS analysis; type: ADME, organism-based
[29] = Drug metabolism in human liver microsomes assessed as N-(6-oxa-2,4-diazabicyclo[3.1.0]hex-3-en-3-yl)-2-chloro-5-(pivalamidomethyl)benzamide formation at 2 uM in presence of 1:1 ratio of unlabeled GSH and [glycine 13C2,15N]-labelled GSH after 0.5 hrs by HPLC-MS analysis; type: ADME, microsome
[30] = In vivo drug metabolism in human urine assessed as N-(6-oxa-2,4-diazabicyclo[3.1.0]hex-3-en-3-yl)-2-chloro-5-(pivalamidomethyl)benzamide formation by HPLC-MS analysis; type: ADME, organism-based
[31] = Drug metabolism in rat hepatocytes assessed as N-(6-oxa-2,4-diazabicyclo[3.1.0]hex-3-en-3-yl)-2-chloro-5-(pivalamidomethyl)benzamide formation at 2 uM after 4 hrs by LC-MS/MS analysis; type: ADME, cell-based, Hepatocyte
[32] = Drug metabolism in Beagle dog plasma assessed as 2-chloro-5-((3-hydroxy-2,2-dimethylpropanamido)methyl)-N-(1H-imidazol-2-yl)benzamide formation at 300 to 600 mg/kg, po measured after 2 hrs post dose by LC/MS analysis; type: ADME, organism-based, Canis lupus familiaris; details: in vivo
[33] = In vivo drug metabolism in human plasma assessed as 2-chloro-N-(4-hydroxy-1H-imidazol-2-yl)-5-(pivalamidomethyl)benzamide formation HPLC-MS analysis; type: ADME, organism-based
[34] = Drug metabolism in dog hepatocytes assessed as 2-chloro-N-(4-hydroxy-1H-imidazol-2-yl)-5-(pivalamidomethyl)benzamide formation at 2 uM after 4 hrs by LC-MS/MS analysis; type: ADME, cell-based, Canis lupus familiaris, Hepatocyte
[35] = In vivo drug metabolism in human plasma assessed as N-(6-oxa-2,4-diazabicyclo[3.1.0]hex-3-en-3-yl)-2-chloro-5-(pivalamidomethyl)benzamide formation HPLC-MS analysis; type: ADME, organism-based
[36] = In vivo drug metabolism in human urine assessed as 2-chloro-N-(4,5-dihydroxy-4,5-dihydro-1H-imidazol-2-yl)-5-(pivalamidomethyl)benzamide formation by HPLC-MS analysis; type: ADME, organism-based
[37] = Drug metabolism in human hepatocytes assessed as N-(6-oxa-2,4-diazabicyclo[3.1.0]hex-3-en-3-yl)-2-chloro-5-(pivalamidomethyl)benzamide formation at 2 uM after 4 hrs by LC-MS/MS analysis; type: ADME, cell-based, Hepatocyte
[38] = Drug metabolism in Sprague-Dawley rat plasma assessed as N-(6-oxa-2,4-diazabicyclo[3.1.0]hex-3-en-3-yl)-2-chloro-5-(pivalamidomethyl)benzamide formation at 1000 mg/kg, po measured after 2 hrs post dose by LC/MS analysis; type: ADME, organism-based; details: in vivo
[39] = Drug metabolism in Sprague-Dawley rat plasma assessed as 2-chloro-N-(4-hydroxy-1H-imidazol-2-yl)-5-(pivalamidomethyl)benzamide formation at 1000 mg/kg, po measured after 2 hrs post dose by LC/MS analysis; type: ADME, organism-based; details: in vivo
[40] = Drug metabolism in rat hepatocytes assessed as 2-chloro-N-(4-hydroxy-1H-imidazol-2-yl)-5-(pivalamidomethyl)benzamide formation at 2 uM after 4 hrs by LC-MS/MS analysis; type: ADME, cell-based, Hepatocyte

Q: For CC(C)(C)C(=O)NCc1ccc(Cl)c(C(=O)Nc2ncc[nH]2)c1 [LY-3031207], which Drug metabolism [1] is on record?
A: Its Drug metabolism is “Metabolite_Detected”.

Q: What about the Drug metabolism [2] of the same compound?
A: The Drug metabolism was “Metabolite_Detected”.

Q: What about the Drug metabolism [3] of the same compound?
A: Its Drug metabolism is “Metabolite_Detected”.

Q: And the Drug metabolism [4]?
A: The Drug metabolism was “Metabolite_Detected”.

Q: And the Drug metabolism [5]?
A: Its Drug metabolism is “Metabolite_Detected”.

Q: What about the Drug metabolism [6] of the same compound?
A: The Drug metabolism was “Metabolite_Detected”.

Q: And the Drug metabolism [7]?
A: The Drug metabolism was “Metabolite_Detected”.

Q: What about the Drug metabolism [8] of the same compound?
A: The Drug metabolism was “Metabolite_Detected”.

Q: And the Drug metabolism [9]?
A: The Drug metabolism was “Metabolite_Detected”.

Q: And the Drug metabolism [10]?
A: Its Drug metabolism is “Metabolite_Detected”.

Q: What about the Drug metabolism [11] of the same compound?
A: Its Drug metabolism is “Metabolite_Detected”.

Q: What about the Drug metabolism [12] of the same compound?
A: Its Drug metabolism is “Metabolite_Detected”.

Q: What about the Drug metabolism [13] of the same compound?
A: The Drug metabolism was “Metabolite_Detected”.

Q: And the Drug metabolism [14]?
A: Its Drug metabolism is “Metabolite_Detected”.

Q: What about the Drug metabolism [15] of the same compound?
A: Its Drug metabolism is “Metabolite_Detected”.

Q: What about the Drug metabolism [16] of the same compound?
A: Its Drug metabolism is “Metabolite_Detected”.

Q: And the Drug metabolism [17]?
A: Its Drug metabolism is “Metabolite_Detected”.

Q: And the Drug metabolism [18]?
A: The Drug metabolism was “Metabolite_Detected”.

Q: What about the Drug metabolism [19] of the same compound?
A: The Drug metabolism was “Metabolite_Detected”.

Q: What about the Drug metabolism [20] of the same compound?
A: The Drug metabolism was “Metabolite_Detected”.

Q: What about the Drug metabolism [21] of the same compound?
A: Its Drug metabolism is “Metabolite_Detected”.

Q: And the Drug metabolism [22]?
A: Its Drug metabolism is “Metabolite_Detected”.

Q: And the Drug metabolism [23]?
A: Its Drug metabolism is “Metabolite_Notdetected”.

Q: What about the Drug metabolism [24] of the same compound?
A: Its Drug metabolism is “Metabolite_Notdetected”.

Q: And the Drug metabolism [25]?
A: Its Drug metabolism is “Metabolite_Detected”.

Q: And the Drug metabolism [26]?
A: Its Drug metabolism is “Metabolite_Detected”.

Q: And the Drug metabolism [27]?
A: The Drug metabolism was “Metabolite_Detected”.

Q: And the Drug metabolism [28]?
A: Its Drug metabolism is “Metabolite_Detected”.

Q: And the Drug metabolism [29]?
A: The Drug metabolism was “Metabolite_Notdetected”.

Q: What about the Drug metabolism [30] of the same compound?
A: The Drug metabolism was “Metabolite_Notdetected”.

Q: And the Drug metabolism [31]?
A: The Drug metabolism was “Metabolite_Notdetected”.

Q: And the Drug metabolism [32]?
A: Its Drug metabolism is “Metabolite_Detected”.

Q: And the Drug metabolism [33]?
A: The Drug metabolism was “Metabolite_Detected”.

Q: And the Drug metabolism [34]?
A: The Drug metabolism was “Metabolite_Detected”.

Q: And the Drug metabolism [35]?
A: Its Drug metabolism is “Metabolite_Notdetected”.

Q: And the Drug metabolism [36]?
A: The Drug metabolism was “Metabolite_Detected”.

Q: And the Drug metabolism [37]?
A: The Drug metabolism was “Metabolite_Notdetected”.

Q: And the Drug metabolism [38]?
A: The Drug metabolism was “Metabolite_Notdetected”.

Q: And the Drug metabolism [39]?
A: Its Drug metabolism is “Metabolite_Detected”.

Q: What about the Drug metabolism [40] of the same compound?
A: The Drug metabolism was “Metabolite_Detected”.
